The source of these data is patent publication US7317006B2, “Thieno[2,3-d]pyrimidines with combined LH and FSH agonistic activity” (N.V. Organon, priority 2001, dated 2008).

For one assay, the target named is T1, human FSH receptor (Homo sapiens, UniProt P23945).
T1 construct: expressed in transfected cells; host or cells: CHO cells, transfected with luciferase reporter gene
T1 sequence (P23945 18-695): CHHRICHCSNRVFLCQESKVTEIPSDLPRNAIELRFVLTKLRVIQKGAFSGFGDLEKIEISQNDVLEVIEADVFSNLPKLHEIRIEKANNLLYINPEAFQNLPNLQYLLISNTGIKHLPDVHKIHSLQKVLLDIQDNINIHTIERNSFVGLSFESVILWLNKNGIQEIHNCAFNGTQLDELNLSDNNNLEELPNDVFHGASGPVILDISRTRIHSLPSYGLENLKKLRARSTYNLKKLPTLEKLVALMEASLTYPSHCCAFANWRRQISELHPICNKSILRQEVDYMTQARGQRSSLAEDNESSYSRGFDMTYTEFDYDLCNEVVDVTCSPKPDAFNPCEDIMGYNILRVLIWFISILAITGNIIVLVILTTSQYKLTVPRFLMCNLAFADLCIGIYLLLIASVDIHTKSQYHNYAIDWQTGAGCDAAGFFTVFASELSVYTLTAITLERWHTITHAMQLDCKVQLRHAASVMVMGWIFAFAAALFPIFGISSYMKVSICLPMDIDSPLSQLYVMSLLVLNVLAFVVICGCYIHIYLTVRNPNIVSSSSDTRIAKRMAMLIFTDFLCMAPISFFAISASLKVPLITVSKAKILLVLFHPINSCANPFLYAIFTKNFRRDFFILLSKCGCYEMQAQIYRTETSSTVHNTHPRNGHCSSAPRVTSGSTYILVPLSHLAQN
Nature of the assay: CHO-FSH in vitro bioactivity (CRE-luciferase reporter). Type of assay: cell-based. Conditions: CHO cells transfected with the human FSH receptor and luciferase reporter gene; read-out: EC50 CHO FSHR. The protocol:
(§1) It has been shown that compounds of the above mentioned formula I show agonistic LH and FSH activity. […] Typically the FSH activity ranges from an activity of about 1% of the LH agonist stimulation to about 10% of the LH agonist stimulation.
(§2) LH agonistic activity of compounds were tested in Chinese Hamster Ovary (CHO) cells stably transfected with the human receptor and cotransfected with a cAMP responsive element (CRE)/promotor directing the expression of a firefly luciferase reporter gene. Binding of ligand to the Gs-coupled LH receptor will result in an increase of cAMP, which in turn will induce an increased transactivation of the luciferase reporter construct. The luciferase signal was quantified using a luminescence counter. For test compounds, EC50 values (concentration of test compound causing half-maximal (50%) stimulation) were calculated. For that purpose the software program GraphPad PRISM, version 3.0 (GraphPad software Inc., San Diego) was used.
In a similar way FSH agonistic activity of compounds was tested in CHO cells transfected with the luciferase reporter gene and the human FSH receptor.

The next assay has as its target T2, human LH receptor (Homo sapiens, UniProt P22888).
T2 construct: expressed in transfected cells; host or cells: CHO cells, cotransfected with CRE/promotor-luciferase reporter
Nature of the assay: CHO-LH in vitro bioactivity (CRE-luciferase reporter). Type of assay: cell-based. Conditions: CHO cells stably transfected with the human LH receptor, read-out: EC50 CHO LHR. Here is the method:
as §1, §2

For another assay, the system named is immature female mice. Briefly: In vivo bioactivity: ovulation induction in immature mice. Conditions: immature female mice primed with urinary FSH (Humegon 12.5 IU/animal), ova in the oviduct counted 24 hours after treatment. The protocol:
To measure LH in vivo activity of compounds, ovulation induction in immature mice can be studied. In this assay immature female mice are primed with urinary FSH and approximately 48 hours later treated with a LH agonistic compound. The animals are killed after LH agonist treatment and the number of ova in the oviduct is microscopically assessed.
To measure in vivo activity of LH/FSH receptor agonistic compounds ovulation induction in immature mice was studied. In this assay immature female mice were primed with urinary FSH (Humegon 12.5 IU/animal). Approximately 48 hours later the animals were treated with a LH/FSH agonistic compound at a dose-level of 50 mg/kg. The animals were killed 24 hours after LH/FSH agonist treatment and the number of ova in the oviduct was microscopically assessed.

T2 sequence (P22888 27-699): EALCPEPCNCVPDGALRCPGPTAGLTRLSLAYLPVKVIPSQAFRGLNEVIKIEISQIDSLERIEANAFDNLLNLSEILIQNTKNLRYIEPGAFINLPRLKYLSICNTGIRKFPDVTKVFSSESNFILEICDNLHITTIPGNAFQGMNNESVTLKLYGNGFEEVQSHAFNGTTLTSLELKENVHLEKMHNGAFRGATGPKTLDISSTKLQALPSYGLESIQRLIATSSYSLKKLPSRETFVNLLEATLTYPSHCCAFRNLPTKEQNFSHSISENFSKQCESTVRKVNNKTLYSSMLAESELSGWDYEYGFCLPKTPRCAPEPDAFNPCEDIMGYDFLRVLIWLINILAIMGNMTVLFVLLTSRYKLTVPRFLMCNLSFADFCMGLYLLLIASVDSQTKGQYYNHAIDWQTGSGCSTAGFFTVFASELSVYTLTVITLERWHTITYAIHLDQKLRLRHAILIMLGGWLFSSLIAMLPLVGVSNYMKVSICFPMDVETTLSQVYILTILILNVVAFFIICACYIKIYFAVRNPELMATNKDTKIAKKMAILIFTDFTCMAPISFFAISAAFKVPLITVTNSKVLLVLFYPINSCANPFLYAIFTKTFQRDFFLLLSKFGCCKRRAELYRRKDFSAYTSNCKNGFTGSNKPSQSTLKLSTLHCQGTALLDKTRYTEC

Turning to `CSc1nc(-c2cccc(NC(=O)CN3CCC3)c2)c2c(N)c(C(=O)NC(C)(C)C)sc2n1` [Example 1, tert-Butyl 5-amino-2-methylthio-4-(3-(2-(azetidin-1-yl)-acetamido)-phenyl)-thieno[2,3-d]pyrimidine-6-carboxamide], the EC50 on human FSH receptor amounted to 462 nM; at human LH receptor, 3.86 nM. In addition, in the assay with immature female mice, the “mean no. of ova (50 mg/kg p.o.)” value is 1.6.

`CSc1nc(-c2cccc(NC(=O)CN3CCOCC3)c2)c2c(N)c(C(=O)NC(C)(C)C)sc2n1` [Example 2, tert-Butyl 5-amino-2-methylthio-4-(3-(2-(morpholin-4-yl)-acetamido)-phenyl)-thieno[2,3-d]pyrimidine-6-carboxamide]: the EC50 at human FSH receptor was 42 nM; on human LH receptor it was 2.24 nM. For the same molecule, the “mean no. of ova (50 mg/kg p.o.)” value with immature female mice stood at 9.3.

For the molecule `CSc1nc(-c2cccc(NC(=O)CN3CCSCC3)c2)c2c(N)c(C(=O)NC(C)(C)C)sc2n1` [Example 3, tert-Butyl 5-amino-2-methylthio-4-(3-(2-(thiomorpholin-4-yl)-acetamido)-phenyl)-thieno[2,3-d]pyrimidine-6-carboxamide], the figures for the EC50 on human FSH receptor and on human LH receptor were 1040 nM and 8.03 nM, respectively. The “mean no. of ova (50 mg/kg p.o.)” value in the assay on immature female mice is recorded as 19.8.

For the molecule `CSc1nc(-c2cccc(NC(=O)CN3CCCCC3)c2)c2c(N)c(C(=O)NC(C)(C)C)sc2n1` [Example 4, tert-Butyl 5-amino-2-methylthio-4-(3-(2-(piperidin-1-yl)-acetamido)-phenyl)-thieno[2,3-d]pyrimidine-6-carboxamide], the EC50 on human FSH receptor was found to be 201 nM; at human LH receptor it was 6.63 nM.

Consider `CSc1nc(-c2cccc(NC(=O)CN3CCCC3)c2)c2c(N)c(C(=O)NC(C)(C)C)sc2n1` [Example 5, tert-Butyl 5-amino-2-methylthio-4-(3-(2-(pyrrolidin-1-yl)-acetamido)-phenyl)-thieno[2,3-d]pyrimidine-6-carboxamide], for which the EC50 at human FSH receptor worked out at 480 nM; on human LH receptor, 6.68 nM.

Regarding `CSc1nc(-c2cccc(NC(=O)CN3CCNCC3)c2)c2c(N)c(C(=O)NC(C)(C)C)sc2n1` [Example 6, tert-Butyl 5-amino-2-methylthio-4-(3-(2-(piperazin-1-yl)-acetamido)-phenyl)-thieno[2,3-d]pyrimidine-6-carboxamide], the values for the EC50 at human FSH receptor and on human LH receptor were 150 nM and 3.17 nM, respectively.
